“Also recorded” adds a separate entry of the source.
How the values were obtained:
HUVEC monoculture = experiment: Inhibitory tests on MVN formation by HUVEC monoculture in fibrin gel under IF, single channel device; type: cell-based, human
Experimental: (§1) FIGS. 8A-8E are graphs showing that IF enhances the vasculogenesis ability of EC through upregulation of MMP-2. MVN was formed statically with HUVEC monoculture in 3-channel device MVN was formed with HUVEC monoculture in single channel device under IF induced by 10 mm H2O pressure difference, or with various inhibitors added: 100 μM PAI-1, 200 U/ml aprotinin, 50 μM marimast, 50 μM NSC 405020, 100 μg/ml MMP-1 neutralizing antibody and 100 μg/ml control antibody. Samples were pooled at day 3. n=3 FIGS. 8A-8D are graphs showing the statistical analysis of morphological parameters and perfusability of perfusable vessels cultured with various concentration of ARP-100. IF induced by 10 mm H2O pressure difference were applied to all cases. n=5 devices for control, n=3 devices for each inhibitor treated group. Significance was calculated with two sample t tests. ***P<0.01. FIG. 8E is a graph of vascular permeability measurements of 40 kDa dextran for perfusable MVNs formed under various conditions. n=3 devices for each group, 3 measurements were performed in each device at different ROIs.
(§2) Green fluorescent protein (“GFP”) tagged human umbilical vein endothelial cells (HUVECs) and human lung fibroblasts (HLFs) were seeded in a 7:1 ratio for all static and IF experiments. Devices were imaged under confocal microscopy with dextran dye perfused at day 6, when MVN were interconnected and perfusable. Devices were seeded with HUVECs and HLFs in combination and HUVECs alone.
(§3) Perfusability is a crucial factor when evaluating the quality of engineered MVN, since the major function of vessels is to transport nutrients, oxygen, metabolic wastes and various cells through perfusable lumens. Perfusability is measured as the ratio between dextran dye cover area (perfusable vessels) and GFP HUVEC cover area (all the vessels). […] To better interpret perfusability, MVN with at least one perfusable vessels across the gel region is defined as partially perfusable, and MVN with perfusability over 80% is defined as fully perfusable.
HUVEC monoculture of the same concentration were also seeded in single channel devices of FIG. 5B and subjected to IF.
Culture media was also supplemented with high concentration (100 uM) plasminogen activator inhibitor-1, which inhibits both uPA and tPA, or aprotinin, which inhibits plasmin.
ARP-100 (IC50 values are 12, 200, 4500, >50000 and >50000 nM for MMP-2, -9, -3, -1, -7, respectively) and NSC 405020 (selective inhibitor of the collagenolytic activity of MT1-MMP without affecting the catalytic activity of cellular MT1-MMP) were tested as specific inhibitors for MMP-2 and MMP-14. 14. High concentrations of anti-MMP-1 neutralizing antibody were used to inhibit MMP-1 activity

HUVEC and HLF coculture = experiment: MVN formation by HUVEC and HLF coculture under IF with MMP-2 inhibitor; type: cell-based, human; conditions: 20 uM
Experimental: FIGS. 10A-10D are graphs showing that IF enhances formation of fully perfusable microvascular network made by HUVEC and HLF. FIGS. 10A-10D are Statistical analysis of morphological parameters and perfusability of perfusable vessels cultured with various concentration of ARP-100. n=6 devices for control, n=3 devices for each inhibitor treated group. Significance was calculated with two sample t tests. ***P<0.01.
as §2, §3

[1] = test system: MVN formed by HUVEC monoculture; experiment: Vascular permeability of 40 kDa dextran in perfusable MVN; type: cell-based, human; conditions: HUVEC monoculture with 10 μM inhibitor under IF
Experimental: as §1, with “FIG. 8E is a graph of vascular permeability measurements of 40 kDa dextran for perfusable MVNs formed under various conditions. n=3 devices for each group, 3 measurements were performed in each device at different ROIs.” left out
In summary, MVN formed without supporting cells tends to be leakier. Since vascular permeability is a critical aspect of functionality of engineered MVN, vascular permeability of 40 kD dextran was measured and compared under various conditions where perfusable vessels can be robustly formed. […] Moreover, all the measurements were in the order of 10^−8 cm/s, which are quite low for vascular permeability measured using 40 kDa dextran. […]

[2] = test system: primary human brain endothelial cells (BECs), brain pericytes, and astrocytes; experiment: BBB MVN formation under IF with MMP-2 specific inhibitor; type: cell-based
Experimental: BBB MVN were formed, consisting of primary human brain endothelial cells (BECs), brain pericytes, and astrocytes.
Triculture were then seeded into single channel devices and grown under IF.
All MVN tissues were immunstained and studied for histology and morphology. Quantitative PCR was also performed to measure MMP-2 levels. The effect of a MMP-2 specific inhibitor was also tested in the BBB model to antagonize the effect induced by IF, as observed in MVNs formed with HUVEC monoculture or HUVEC and HLF co-culture.

MMP-2 = target: T1, MMP-2 (Homo sapiens, UniProt P08253); conditions: cited from earlier work
T1 sequence (P08253 110-660): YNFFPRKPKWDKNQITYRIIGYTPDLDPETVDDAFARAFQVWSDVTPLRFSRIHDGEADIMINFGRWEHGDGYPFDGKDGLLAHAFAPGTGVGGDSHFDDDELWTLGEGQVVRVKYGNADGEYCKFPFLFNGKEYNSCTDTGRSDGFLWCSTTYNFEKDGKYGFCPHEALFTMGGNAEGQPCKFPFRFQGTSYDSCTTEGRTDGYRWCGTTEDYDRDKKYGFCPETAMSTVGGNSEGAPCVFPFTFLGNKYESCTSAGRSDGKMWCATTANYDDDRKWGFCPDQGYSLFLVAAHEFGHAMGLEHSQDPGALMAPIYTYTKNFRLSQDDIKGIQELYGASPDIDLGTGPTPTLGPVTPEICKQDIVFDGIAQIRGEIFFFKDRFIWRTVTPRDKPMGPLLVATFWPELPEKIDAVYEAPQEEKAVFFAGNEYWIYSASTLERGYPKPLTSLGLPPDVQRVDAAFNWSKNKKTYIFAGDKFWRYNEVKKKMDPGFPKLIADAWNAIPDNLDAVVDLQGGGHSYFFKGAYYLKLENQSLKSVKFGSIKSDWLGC

MMP-3 = MMP-3 (Homo sapiens, UniProt P08254); conditions: cited from earlier work
MMP-3, sequence (P08254 100-477): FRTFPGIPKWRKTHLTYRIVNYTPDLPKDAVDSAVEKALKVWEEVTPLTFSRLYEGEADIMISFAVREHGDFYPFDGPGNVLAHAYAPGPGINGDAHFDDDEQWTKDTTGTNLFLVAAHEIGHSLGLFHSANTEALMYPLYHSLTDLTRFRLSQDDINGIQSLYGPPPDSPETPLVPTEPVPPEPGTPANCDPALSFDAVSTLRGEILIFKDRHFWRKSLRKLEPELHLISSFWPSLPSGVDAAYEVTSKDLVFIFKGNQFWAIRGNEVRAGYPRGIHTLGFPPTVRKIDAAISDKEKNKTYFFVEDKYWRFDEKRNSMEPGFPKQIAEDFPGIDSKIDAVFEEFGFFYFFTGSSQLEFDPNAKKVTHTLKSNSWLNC

MMP-1 = target: T2, MMP-1 (Homo sapiens, UniProt P03956); conditions: cited from earlier work
T2 sequence (P03956 100-469): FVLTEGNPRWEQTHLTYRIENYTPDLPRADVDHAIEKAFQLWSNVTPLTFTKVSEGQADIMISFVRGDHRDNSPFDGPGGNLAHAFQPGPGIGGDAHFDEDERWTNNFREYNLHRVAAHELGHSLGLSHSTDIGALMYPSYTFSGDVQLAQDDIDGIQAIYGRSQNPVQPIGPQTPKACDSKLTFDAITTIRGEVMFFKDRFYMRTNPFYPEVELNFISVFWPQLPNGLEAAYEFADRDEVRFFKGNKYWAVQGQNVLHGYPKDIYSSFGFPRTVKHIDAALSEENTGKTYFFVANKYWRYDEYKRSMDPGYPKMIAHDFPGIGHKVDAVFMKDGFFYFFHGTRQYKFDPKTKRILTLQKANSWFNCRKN

MMP-7 = target: T3, MMP-7 (Homo sapiens, UniProt P09237); conditions: cited from earlier work
T3 sequence (P09237 95-267): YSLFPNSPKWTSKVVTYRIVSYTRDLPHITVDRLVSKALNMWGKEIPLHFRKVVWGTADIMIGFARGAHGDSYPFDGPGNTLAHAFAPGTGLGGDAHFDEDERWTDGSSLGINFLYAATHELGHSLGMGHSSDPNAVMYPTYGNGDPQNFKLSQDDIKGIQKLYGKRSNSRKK

MMP-9 = MMP-9 (Homo sapiens, UniProt P14780); conditions: read-out: IC50 for MMP-9; cited from earlier work
MMP-9, sequence (P14780 94-707): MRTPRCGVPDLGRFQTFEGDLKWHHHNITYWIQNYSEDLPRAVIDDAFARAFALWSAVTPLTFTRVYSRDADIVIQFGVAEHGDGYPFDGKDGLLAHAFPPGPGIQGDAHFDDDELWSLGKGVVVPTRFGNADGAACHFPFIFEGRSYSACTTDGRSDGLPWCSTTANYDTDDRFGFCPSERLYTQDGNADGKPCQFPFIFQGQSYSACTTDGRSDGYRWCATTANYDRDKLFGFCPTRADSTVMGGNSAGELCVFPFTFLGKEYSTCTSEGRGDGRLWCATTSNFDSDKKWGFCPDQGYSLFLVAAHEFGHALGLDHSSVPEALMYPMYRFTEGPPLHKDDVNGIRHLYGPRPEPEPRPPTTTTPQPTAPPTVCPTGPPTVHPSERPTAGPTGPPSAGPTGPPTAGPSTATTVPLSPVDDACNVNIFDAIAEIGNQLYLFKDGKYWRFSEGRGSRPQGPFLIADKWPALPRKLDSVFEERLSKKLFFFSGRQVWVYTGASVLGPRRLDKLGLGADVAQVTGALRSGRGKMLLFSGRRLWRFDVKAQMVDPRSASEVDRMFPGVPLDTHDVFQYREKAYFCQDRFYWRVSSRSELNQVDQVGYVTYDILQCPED

In the case of CC(C)ON(CC(=O)NO)S(=O)(=O)c1ccc(-c2ccccc2)cc1 [ARP-100], the “MVN morphology (vessel diameter, coverage area, branches)” value (HUVEC monoculture; 10 μM) is reported as “significantly narrower vessels, reduced coverage area and increased branches; also recorded: effectively reduced the average diameter and coverage area of vessels”, the “perfusability of MVN” value (HUVEC monoculture; 10 μM, in comparison with control group) is reported as “perfusability well maintained” and the “perfusion of MVN with dextran dye” value (HUVEC monoculture; 20 μM) is reported as “no vessels can be successfully perfused with dextran dye”. For the same molecule, the network structure development (HUVEC monoculture; 50 uM, day 5) was “complete failure in developing network structure”, the “perfusability of MVN” value (HUVEC and HLF coculture) was “can maintain high perfusability” and the “vascular permeability of 40 kD dextran” value [1] was ~10^−8 cm/s. For the same molecule, the “BBB network vessel morphology” value ([2]; day 3, 20 uM compared with 10 μM) was “thinner and sparser vessels”, the “BBB network perfusability and morphology” value ([2]; day 6, higher concentration (20 uM)) was “disconnected thin network segments without any perfusable vessels” and the “BBB network perfusability and morphology” value ([2]; day 6, low concentration (10 μM)) was “became perfusable with much thinner vessels compared to untreated ones”. The IC50 (MMP-2) was 12 nM, the IC50 (MMP-3) was 4500 nM and the IC50 (MMP-1) was greater than 50000 nM. For the same molecule, the IC50 (MMP-7) was greater than 50000 nM and the IC50 (MMP-9) was 200 nM.
With CCCC(C)NC(=O)c1ccc(Cl)c(Cl)c1 (stereo not drawn) [NSC 405020] the “changes in formed MVN” value (HUVEC monoculture; 50 μM) was “didn't induce any noticeable changes in formed MVN”.
With CNC(=O)[C@@H](NC(=O)[C@H](CC(C)C)[C@H](O)C(=O)NO)C(C)(C)C [marimast] the vessel formation (HUVEC monoculture; 50 μM, 5 days) was “completely disrupted the vessel formation process”.
For aprotinin, the “development of fully perfusable MVN” value (HUVEC monoculture; 200 U/ml in culture media) was “did not affect the development of fully perfusable MVN”.
With plasminogen activator inhibitor-1 the “development of fully perfusable MVN” value (HUVEC monoculture; 100 uM in culture media) was “did not affect the development of fully perfusable MVN”.
